Source: PMC7857480 (The Journal of Biological Chemistry, 2020)

Biological target: FigC (Francisella tularensis, UniProt Q15EG8)
Conditions: covalent (Schiff base with K63); active site at dimer interface

FigC, sequence (Q15EG8 1-417): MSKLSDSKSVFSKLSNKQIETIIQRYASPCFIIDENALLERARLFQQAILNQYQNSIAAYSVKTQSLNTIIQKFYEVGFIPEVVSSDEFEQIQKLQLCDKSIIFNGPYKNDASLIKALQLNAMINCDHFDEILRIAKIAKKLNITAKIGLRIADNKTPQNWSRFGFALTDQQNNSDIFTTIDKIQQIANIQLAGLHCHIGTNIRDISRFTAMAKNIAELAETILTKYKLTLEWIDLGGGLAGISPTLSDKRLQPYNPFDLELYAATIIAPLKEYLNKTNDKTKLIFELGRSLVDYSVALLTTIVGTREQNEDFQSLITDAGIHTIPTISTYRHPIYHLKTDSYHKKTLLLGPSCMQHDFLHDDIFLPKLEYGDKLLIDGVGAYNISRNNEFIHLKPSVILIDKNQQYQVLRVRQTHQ

Structure (SMILES): Cc1ncc(COP(=O)(O)O)c(C=O)c1O [PLP]
- X-ray crystal structure, 2.1 Å, SeMet SAD: all four active sites showed good density for the cofactor PLP
